In patent publication US20060167229A1, “Biologically active peptide conjugates” (priority 2002, published 2006):
Marks after values point to notes of the source that are not given here. Ends that are not written are not given here.

Columns and labels:
Assay type in all cases: in vivo, BALB/c mice
[1] = test system: spleen; experiment: Immunity organ weight test, spleen index; conditions: for weight of spleen (spleen index), X ± SD (%): healthy mice, peptide 500 μg/kg/day i.p. 15 days, saline 0.53 ± 0.05; for effect on the weight of the spleen (summary): statistically significant difference from saline in any of the dosage groups 0.5-500 μg/kg/day
Procedure: (§1) One day after the last test substance administration (day 16), the liver, spleen, and thymus gland were separated and blotted dry with filter paper and weighed. The phagocytosis index α was calculated as below: α=(^3√{square root over ( )}K)(W÷WLS)
Spleen index (%)=(spleen weight/body weight)×100%

[2] = test system: NK cell; experiment: NK cell cytotoxicity activity test (spleen cells of treated mice against YAC-1 target cells, MTT); conditions: for NK cell cytotoxic activity, X ± SD (%): healthy mice; for effect on the cytotoxic activity of NK cells (summary): statistically significant difference from saline in any of the dosage groups 0.5-500 μg/kg/day
Procedure: (§2) The above substances were all dissolved in 0.5 ml saline and injected intraperitoneal (i.p.) for 15 continuous days, once per day.
(§3) Ten mice per group. The day after the last test substance administration, the mice were sacrificed by cervical dislocation. The spleen was isolated aseptically and manually dispersed in cold D-Hank's solution using an injection needle. The dispersed cell suspension was further sieved through a 100 gauge 150 μm diameter stainless steel sieve. After centrifugation at 200 g for 10 minutes, the supernatant was discarded. The cell pellet was re-suspended in 10 volume of Tris-NH4Cl buffer and then kept standing still for 10 minutes at room temperature. The suspended cells were collected by centrifugation at 150 g for 10 minutes. The cells were washed 2-4 times with cold D-Hank's solution by re-suspending and collecting by centrifugation with condition as described above. The washed cells were then diluted to the desired cell densities by RPMI-1640 culture medium, containing 10% fetal bovine serum.
Mice spleen cells were prepared to 4×10^6/ml as described in section 1.1 above. Target cells YAC-1 were brought to log phase and adjusted to 1×10^5/ml. Using a 96 wells cell culture plate, […] were added to the control well containing only the spleen cells; […] and 100 μl culture medium were added to the control well containing only target cells; 100 μl mouse spleen cells and 100 μl target cells were added to the NK activity assay well. Three parallel sets of the above were prepared per mouse.
Samples were centrifuged at 150 g for 10 minutes to collect the cells. The supernatant was discarded and 50 μl/well MTT of 1 mg/ml was added. The reaction-mixture was then shaken for 2 minutes, and incubated at 37° C., 5% CO2 for 4 hours. The supernatant was discarded after centrifugation at 150 g for 10 minutes. […] 40 mM HCl-2-propanol was added and shaken for 3 minutes. An ELISA reader was used to obtain OD570 nm of each well referenced at 630 nm.

[3] = test system: thymus gland; experiment: Immunity organ weight test, thymus gland index; conditions: for weight of thymus gland (thymus gland index), X ± SD (%): healthy mice, saline 0.12 ± 0.02; for effect on the weight of the thymus gland (summary): statistically significant difference from saline in any of the dosage groups 0.5-500 μg/kg/day
Procedure: as §1
Thymus gland index (%)=(thymus weight/body weight)×100%

[4] = test system: anti-SRBC antibody; experiment: Sheep Red Blood Cell (SRBC) hemolysis test, antibody formation; conditions: for anti-SRBC antibody formation, X ± SD (Unit): healthy mice, SRBC day 12 (IFN-γ, IL-2 3×10^5 IU/kg/day), saline 32 ± 7; for effect on the synthesis of anti-SRBC antibody upon the antigenic challenge (summary): statistically significant difference from saline in any of the dosage groups 0.5-500 μg/kg/day
Procedure: Sheep red blood cells (SRBC) were prepared by collecting blood from cervical vein and put into a sterile flask with glass beads. The flask was shaken for 3 minutes and the blood then mixed with Alsever solution (glucose 2.05 g, NaCl 0.4 g, […] 0.8 g, adjust to 100 ml with distilled water) and stored at 4° C. Immediately before use, samples were centrifuged at 130 g, 5 minutes to collect the SRBC. The cells were washed two times by re-suspension and centrifugation in normal saline. Then the cell pellet was collected by centrifugation at 180 g for 10 minutes and re-suspended in saline to make the final working SRBC suspension, 2% (v/v).
Complement was prepared by adding 10 volumes of fresh Cavy serum into one volume centrifuge packed SRBC, and then gently shaking for 30 minutes at 4° C. The SRBC was removed by centrifugation at 200 g for 10 minutes. 10 volumes of normal saline were added to obtain the working complement solution.
The test substances were administered as described in section 1.1, plus intraperitoneal injection 0.2 ml SRBC per mouse on day 12. On the day after the last test substance administration (day 16), blood was collected from the eye canthus and left at room temperature for one hour for serum exudation. After centrifugation at 200 g for 10 minutes, the serum was diluted by 500 times with normal saline.
To 1 ml diluted mouse serum of each mouse, 0.5 ml SRBC suspension was added. Ice cold. Then 1 ml working complement solution was added and incubated at 37° C. water bath for 10 minutes. Reactions were terminated by ice cold. Samples were then centrifuged at 200 g for 10 minutes to obtain the supernatant.
To 1 ml of this supernatant, 3 ml Drabkin solution was added and left at room temperature for 10 minutes. OD540 nm was obtained.
Reference OD540 nm was obtained by mixing 0.25 ml SRBC suspension with Drabkin solution to 4 ml and placed at room temperature for 10 minutes before OD540 nm was taken.
Sample serum index=(OD540 nm of test sample÷reference OD540 nm)×500

[5] = test system: mononuclear phagocyte; experiment: Carbon particle clearance test, phagocytosis function; parameters: key to X ± SD (phagocytotic index): α = cube root of K × (body weight ÷ liver+spleen weight)
Procedure: On the next day after the last test substance administration (day 16), the mice were injected with […] body weight India ink (5 times dilution with normal saline) from the tail vein.
One minute and five minutes after Indian ink injection, 20 μl blood was obtained from the eye canthus with a heparinized tubing. The blood was mixed with 2 ml 0.1% w/v Na2CO3 and then OD680 nm obtained. The outline clear index K was calculated by the following formula: K=(lgA1−lgA2)÷(t2−t1)
as §1

[6] = test system: T lymphocyte; experiment: T lymphocyte transformation test (ConA-stimulated spleen cells of treated mice, MTT); conditions: for X ± SD (stimulation index): healthy mice, saline 1.3 ± 0.1
Procedure: as §2, §3
Spleen cells of density 1×10^6/ml were placed onto a 96 wells cell culture plate, 100 μL/well, three parallel wells each of the assay sample and control sample per mouse. To the assay wells, 100 μl/well ConA of 100 μg/ml in RPMI-1640 was added, and […] plain RPMI-1640 was used for the controls. The cells were incubated for 66 hrs at 37° C., 5% CO2. The cells were then pelleted by centrifugation at 150 g for 10 minutes.
50 μl/well MTT of 1 mg/ml in RPMI-1640 was added to the cell pellet and the cells re-suspended by shaking for 2 minutes. The incubation was continued for 4 hours. The supernatant was discarded after centrifugation at 150 g for 10 minutes. 120 μl 40 mM HCl-2-propanol was added to the cell pellet and shaken for 3 minutes. […]
Each mouse formed three assay wells and three control wells. The Stimulation Index (SI) of each mouse was obtained by first deriving the average OD of the three parallel wells, then dividing the value of the assay wells by the control wells.

[7] = peptide 500 μg/kg/day i.p. 15 days (IFN-γ, IL-2 3×10^5 IU/kg/day), saline 63 ± 9
[8] = peptide 5 μg/kg/day i.p. 15 days (IFN-γ, IL-2 3×10^5 IU/kg/day)
[9] = peptide 50 μg/kg/day i.p. 15 days (IFN-γ, IL-2 3×10^5 IU/kg/day)
[10] = peptide 0.5 μg/kg/day i.p. 15 days
[11] = peptide 5 μg/kg/day i.p. 15 days
[12] = peptide 50 μg/kg/day i.p. 15 days
[13] = peptide 500 μg/kg/day i.p. 15 days
[14] = peptide 500 μg/kg/day i.p. 15 days (IFN-γ, IL-2 3×10^5 IU/kg/day)
[15] = statistically significant difference from saline in any of the dosage groups 0.5-500 μg/kg/day
[16] = peptide 0.5 μg/kg/day i.p. 15 days (IFN-γ, IL-2 3×10^5 IU/kg/day)

| Substance | weight of spleen (spleen index), X ± SD (%) [1] [%] | effect on the weight of the spleen (summary) [1] | NK cell cytotoxic activity, X ± SD (%) [2, 7] [%] | effect on the cytotoxic activity of NK cells (summary) [2] | weight of thymus gland (thymus gland index), X ± SD (%) [3, 8] | weight of thymus gland (thymus gland index), X ± SD (%) [3, 9] | effect on the weight of the thymus gland (summary) [3] | anti-SRBC antibody formation, X ± SD (Unit) [4, 10] | anti-SRBC antibody formation, X ± SD (Unit) [4, 11] | anti-SRBC antibody formation, X ± SD (Unit) [4, 12] | anti-SRBC antibody formation, X ± SD (Unit) [4, 13] | effect on the synthesis of anti-SRBC antibody upon the antigenic challenge (summary) [4] | weight of thymus gland (thymus gland index), X ± SD (%) [3, 14] | weight of thymus gland (thymus gland index), X ± SD (%) [3, 16] | also measured |
| --- | --- | --- | --- | --- | --- | --- | --- | --- | --- | --- | --- | --- | --- | --- | --- |
| Ala Ala Phe [CMS023] | 0.36 ± 0.06 | decrease | 79 ± 12 | increase | 0.23 ± 0.06 % | 0.20 ± 0.02*^@^ % | increase | 108 ± 21*^@^ Unit | 166 ± 27*^@^ Unit | 84 ± 11*^@^ Unit | 110 ± 45*^@^ Unit | enhance |  |  |  |
| Phe Gln Ser Phe (FQSF; printed: Phe Gln Ser Phe) [CMS033] |  |  | 89 ± 8 | increase | 0.20 ± 0.02 % | 0.18 ± 0.03 % | increase | 78 ± 12*^@ Unit | 128 ± 39*^@^ Unit | 112 ± 15*^@^ Unit | 143 ± 27*^@^ Unit | enhance | 0.25 ± 0.04*^@^ % |  |  |
| Phe Glu Gln Asn Met (FEQNM; printed: Phe Glu Gln Asn Met) [CMS027] | 0.37 ± 0.03 | decrease | 88 ± 8 | increase |  | 0.21 ± 0.03*^@^ % | increase | 99 ± 14*^@^ Unit | 117 ± 45*^@^ Unit | 93 ± 11*^@^ Unit |  | enhance | 0.20 ± 0.03*^ % |  | X ± SD (phagocytotic index) ([5]; healthy mice, peptide 0.5 μg/kg/day i.p. 15 days (IFN-γ, IL-2 3×10^5 IU/kg/day), saline 5.1 ± 0.6): 6.4 ± 0.6; effect on the phagocytotic activity of mononuclear phagocyte (summary) [5, 15]: enhance |
| TTYNSIM [CMS026] |  |  | 89 ± 7 | increase | 0.31 ± 0.05*^@^ % | 0.27 ± 0.02*^@^ % | increase | 19 ± 6 Unit | 191 ± 17*^@^ Unit | 98 ± 9*^@^ Unit |  |  | 0.20 ± 0.03*^ % | 0.21 ± 0.05 % | NK cell cytotoxic activity, X ± SD (%) ([2]; peptide 50 μg/kg/day i.p. 15 days (IFN-γ, IL-2 3×10^5 IU/kg/day), saline 56 ± 8): 76 ± 9 % |
| VVYPWTQRF [CMS002] |  |  |  | increase | 0.24 ± 0.05*^ % | 0.21 ± 0.02*^@^ % | increase | 4 ± 1 Unit |  |  | 87 ± 18*^@ Unit |  |  | 0.26 ± 0.06*^@^ % | NK cell cytotoxic activity, X ± SD (%) ([2]; peptide 0.5 μg/kg/day i.p. 15 days (IFN-γ, IL-2 3×10^5 IU/kg/day), saline 58 ± 7): 76 ± 9 %; X ± SD (stimulation index) [6, 9]: 2.6 ± 0.3*^@^; X ± SD (stimulation index) [6, 14]: 1.8 ± 0.3; effect on T lymphocyte transformation (summary) [6, 15]: enhance |
